Laboratory results as given in US9435811B2, “Inducer of chondrocyte proliferation and differentiation” (ORIENTAL YEAST CO., LTD, priority 2008, dated 2016).
Positions of bridges follow the written chain, without caps; N, C: chain ends. No end group written: not given here.

Columns and labels:
[1] = tested on: human mesenchymal stem cells; test: Three-dimensional culture using human mesenchymal stem cells; assay type: cell-based
Experimental: Chondrocytes are three-dimensionally cultured induce […]. Three dimensional culture system relatively reflected the natural conditions. Human mesenchymal stem cells were seeded at 2.5×10^5 cells in 15-ml tubes (TPP) and the cells were collected by centrifuged at 1,000 rpm and room temperature for 4 minutes. The supernatant was removed and the medium was replaced with 0.5 ml chondrocyte differentiation induction medium (Lonza) with 10 ng/ml TGF-β3 (R&D). The medium was replaced with fresh medium every 3 or 4 days. Simultaneously, peptide D was added at 50 μM and at 150 μM (i.e., a low-dose peptide D group and a high-dose peptide D group). After 14 days, the cells were fixed in 4% PFA (Wako), photographed under a microscope (FIG. 8). A pellet was embedded in paraffin, and the sample slide was prepared, followed by alcian blue staining and safranin 0 staining (FIG. 9).
2.5×10^5 human mesenchymal stem cells were cultured in the presence of 40 μM peptide D and 10 ng/ml TGF-β3 with cartilage differentiation induction medium for 21 days. After the pellets were fixed in 4% PFA, the pellet was photographed under a microscope (FIG. 10). After the pellet had been embedded in paraffin, the sample slide was prepared and stained with alcian blue and safranin 0 (FIG. 11).
After the pellets were fixed in 4% PFA, the pellet was photographed under a microscope (FIG. 12). After the pellet had been embedded in paraffin, the sample slide was prepared and stained with alcian blue and safranin O (FIG. 13).

ATDC5 cells [2] = test: RT-PCR analysis of chondrocytic factors in ATDC5 cells; assay type: cell-based, mouse; settings: 200 μM peptide D
Experimental: Mouse prechondrocytes, ATDC5 cells (5×10^4 cells) were seeded in a 6-cm dish (IWAKI) and cultured in the presence of a cartilage differentiation induction medium containing 10 ng/ml insulin and transferrin for 7 days and for 14 days. The peptide D group was added at 200 μM peptide D, and 5 ng/ml of BMP-4 was added to the positive control group. The cells were washed with PBS after culture, the cells were dissolved in 1 ml TRIZOL […], and the solution was obtained. After 5 min at room temperature, 0.2 ml of chloroform (Wako) was added, followed by vigorous inversion mixing and centrifugation at 4° C. and 12,000×g for 15 minutes. The supernatant was collected in a new tube, and was added to 0.5 ml of isopropanol (Nacalai), followed by inversion mixing. The resultant was left at room temperature for 10 minutes and centrifuged at 4° C. and 12,000×g for 10 minutes. The supernatant was discarded, and the resultant was added to 70% ethanol. After dry-up, RNA was dissolved in 87.5 μl of DEPC water, 10 μl of RDD buffer and 2.5 μl of DNase, and the mixture was allowed to stand at room temperature for 10 minutes. The RNA sample was cleaned by the RNeasy MinElute Cleanup Kit (Qiagen), and the concentration of the obtained RNA was measured using NanoDrop. The obtained RNA (250 ng) was electrophoresed on 1% agarose gel, checked degradation of RNA, and undegradated RNA samples (250 ng each) were used in RT-PCR. RT-PCR was carried out using the ThermoScript RT-PCR System (Invitrogen) and random primers.
After cDNA was synthesized, PCR was carried out using primers specific for the α1 chains of mouse type II collagen (mCol 2α1), mouse type X collagen (mCol X), and mouse aggrecan (mAggrecan). PCR was carried out using mouse GAPDH-specific primers for standardization. The sequences of PCR primers used are shown below. […]
The sample obtained after PCR was electrophoresed on 2% agarose gel, and a specific band was detected by UV with the use of ethidium bromide staining (FIG. 3A and FIG. 4A). The obtained image was analyzed using the CSAnalyzer (ATTO).

[3] = tested on: human mesenchymal stem cells; test: GeneChip analysis using human mesenchymal stem cells; assay type: cell-based; settings: for aggrecan expression level: 10 ng/ml TGF-β3; for expression levels of Sox9 compared with the control group: 24 hours and 96 hours after the addition
Experimental: Human mesenchymal stem cells were seeded in a 6-well plate (Nunc) at 1×10^5 cells/well, the culture supernatant was discarded 96 hours later, and 2 ml of a cartilage differentiation induction medium was added. The control group, the 40 μM peptide D group, the 10 ng/ml TGF-β3 group, and the 40 μM peptide D+10 ng/ml TGFβ3 group were prepared. Each culture medium was replaced 24 hours after the stimulation. The cells were dissolved in 1 ml of TRIZOL (Invitrogen) 96 hours after the stimulation, and RNA was isolated. The isolated RNA was used for GeneChip analysis (Affimetrix, Kurabo).

RANKL = molecular target: T1, RANKL (Homo sapiens, UniProt O14788); settings: Aoki et al., J. Clin. Invest., 116: 1525, 2006; cited from earlier work
T1 sequence (O14788 140-317 limits assumed): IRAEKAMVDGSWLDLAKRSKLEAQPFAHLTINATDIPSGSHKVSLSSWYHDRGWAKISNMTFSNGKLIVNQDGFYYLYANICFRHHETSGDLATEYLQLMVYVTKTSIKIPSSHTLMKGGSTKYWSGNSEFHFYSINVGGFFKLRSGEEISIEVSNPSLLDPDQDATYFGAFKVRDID

[4] = tested on: human mesenchymal stem cells; test: Induction of human mesenchymal stem cell differentiation, alcian blue staining; assay type: cell-based; settings: 100 μM peptide D, 14 days
Experimental: Human mesenchymal stem cells were seeded at 5×10^4 cells/well in 48-well plate (IWAKI). The culture supernatant was removed 24 hours later, the medium was replaced with a chondrocyte differentiation induction medium (Lonza), and the medium was replaced with fresh medium every 3 or 4 days. Simultaneously, peptide D was added at 100 μM (the group to which peptide D was administered). Further, a group cultured with 100 μM peptide D and 1 ng/ml BMP-4 (R&D) was examined. BMP-4 was added at 1 ng/ml as a positive control group. After 14 days, these cells were fixed in 10% neutral buffered formalin. After fixation, the cells were stained with an alcian blue solution for 4 hours, and the culture plate was photographed. Moreover the pigment was eluted using a 6M guanidinium hydrochloride solution from the culture plate. The eluate (100 μl) was moved to a new 96-well plate, and measured the absorbance at 620 nm by microplate reader (BMG Labtech).

ATDC5 cells [5] = test: GeneChip analysis using ATDC5 cells; assay type: cell-based, mouse; settings: 100 μM peptide D, signal ratio to control group
Experimental: The peptide described in Example 1 was used. The ATDC5 cells described in Example 2 were used as cultured cells. The ATDC5 cells were seeded in a 6-cm dish (IWAKI) at 1×10^5 cells/well. The culture supernatant was removed 72 hours later, and DMEM/F-12 medium containing 10 ng/ml insulin (Roche) and 10 ng/ml transferrin (Roche) was added. The medium was replaced with fresh medium every 3 or 4 days.
Simultaneously, peptide D was added at 100 μM. The medium was removed 4 days and 7 days after the induction of differentiation. The cells were washed with PBS, and RNA of these cells was obtained using the Absolutely RNA Miniprep Kit (Stratagene) 7 days after the induction of differentiation. The extracted RNA was subjected to GeneChip analysis (Affimetrix, Kurabo).

ATDC5 cells [6] = test: Induction of differentiation of ATDC5 cells by peptide D, alcian blue staining; assay type: cell-based, mouse; settings: peptide D 25 μM and 100 μM, 14 days
Experimental: The culture cells (ATDC5) derived from a mouse chondrogenic EC (embryonal carcinoma) cell was provided by Professor Hiraki and Associate Professor Shukunami in the Institute for Frontier Medical Sciences, Kyoto University. DMEM/F-12 medium (Cellgro) containing 5% FBS (Nichirei) was used as a maintenance medium.
ATDC5 cells were seeded at 2×10^4 cells/well in a 48-well plate (IWAKI). The culture supernatant was removed 24 hours later, and DMEM/F-12 medium containing 10 ng/ml insulin (Roche) and transferrin (Roche) were added. The medium was replaced with fresh medium every 3 or 4 days.
Simultaneously, peptide D was added at 25 μM and 100 μM. One ng/ml and 5 ng/ml BMP-4 (R&D) were added as positive control. In order to examine the synergistic effects of peptide D and BMP-4, further, 25 μM peptide D and 1 ng/ml BMP-4 were added. After 14 days, these cells were fixed in 10% neutral buffered formalin. After fixation, the cells were stained with an alcian blue solution for 4 hours, and the culture plate was photographed.

[7] = peptide D 50 μM and 150 μM, medium with 10 ng/ml TGF-β3, 14 days
[8] = 24 hours after the addition, 40 μM peptide D
[9] = 96 hours after the addition, 40 μM peptide D

For “peptide D: cyclic peptide of 9 amino acid residues, SEQ ID NO: 7, two cysteine residues bound by a disulfide bond; binds to RANKL (YCWSQYLCY; disulfide 2-8 (inferred))”, the “alcian blue or safranin O staining of 3-dimensional pellets” value [1, 7] was “positive stained”, the pellet size [1, 7] was “increased the pellet size in a dose dependent manner” and the aggrecan expression level (ATDC5 cells [2]; day 7, standardized with GAPDH) was “increased”. The “expression level of the α chain of type II collagen compared with the control” value (ATDC5 cells [2]; day 7, standardized with GAPDH) was “significantly increased”, the “expression level of type X collagen” value (ATDC5 cells [2]; day 14, standardized with GAPDH) was “particularly increased” and the “IGF2R and versican expression” value ([3]; 40 μM peptide D, 24 hours later) was “elevated”. The “IGF-1, LTBP2, and TGFβ1 expression levels” value ([3]; 40 μM peptide D, 96 hours later) was “elevated”, the aggrecan expression level [3, 8] was “elevated” and the “expression levels of Sox9 compared with the control group” value [3] was “elevated”. The aggrecan expression level [3, 9] was “elevated expression level was maintained”, the “binding to RANKL” value (RANKL) was “binds to RANKL” and the “absorbance of the eluate at 620 nm (alcian blue pigment) versus control group” value [4] was “significant increase”. For the same molecule, the “alcian blue positive cells compared with control” value ([4]; chondrocyte differentiation induction medium) was “increased”, the “expression level of BMP-7” value (ATDC5 cells [5]) was “increased” and the “expression levels of CTGF, PDGF, TGFβ1, fibromodulin and receptors (PDGFR1, FGFR2)” value (ATDC5 cells [5]) was “increased”. For the same molecule, the “expression levels of the α chains of type II, IX, and XI collagens” value (ATDC5 cells [5]) was “increased”, the “expression of asporin, IGFbp2, IGFbp6, and ADAMTS5” value (ATDC5 cells [5]) was “inhibited” and the “number of alcian blue positive nodules” value (ATDC5 cells [6]) was “increased in a dose dependent manner”.

B1: TGF-β3: TGF-β3 (R&D), protein belonging to the TGF-β superfamily (protein, UniProt P10600 301-412, looked up)
Transforming growth factor …: ALDTNYCFRNLEENCCVRPLYIDFRQDLGWKWVHEPKGYYANFCSGPCPYLRSADTTHSTVLGLYNTLNPEASASPCCVPQDLEPLTILYYVGRTPKVEQLSNMVVKSCKCS
In the case of B1, the pellet size ([1]; 21 days, 40 μM peptide D, 10 ng/ml TGF-β3, 100 ng/ml BMP-2) is reported as “did not change”, the aggrecan expression level [3, 8] is reported as “equivalent to that of the control group” and the “expression levels of Sox9 compared with the control group” value [3] is reported as “elevated”. The aggrecan expression level [3, 9] was “lower than that of the control group”.
